From ChEMBL document CHEMBL3259558, “Identification of amides derived from 1H-pyrazolo[3,4-b]pyridine-5-carboxylic acid as potent inhibitors of human nicotinamide phosphoribosyltransferase (NAMPT)” (Bioorg Med Chem Lett, 2013)
In brackets after ≈: the same amount, converted by molar mass. Activity calls are given as the source filed them. The rule behind the calls is not given here.

Key:
A2780 [1] = test: Antiproliferative activity against human A2780 cells assessed as cell viability after 72 hrs by SRB assay in presence of nitotinamide mononucleotide; type: functional, cell-based
[2] = biological target: Nicotinamide phosphoribosyltransferase (Homo sapiens, UniProt P43490); test: Inhibition of C-terminal His-6-tagged full length human NAMPT expressed in Escherichia coli (DE3) cells after 30 mins by mass spectrometry-based analysis
Sequence of Nicotinamide phosphoribosyltransferase (Homo sapiens, UniProt P43490) (P43490 whole entry): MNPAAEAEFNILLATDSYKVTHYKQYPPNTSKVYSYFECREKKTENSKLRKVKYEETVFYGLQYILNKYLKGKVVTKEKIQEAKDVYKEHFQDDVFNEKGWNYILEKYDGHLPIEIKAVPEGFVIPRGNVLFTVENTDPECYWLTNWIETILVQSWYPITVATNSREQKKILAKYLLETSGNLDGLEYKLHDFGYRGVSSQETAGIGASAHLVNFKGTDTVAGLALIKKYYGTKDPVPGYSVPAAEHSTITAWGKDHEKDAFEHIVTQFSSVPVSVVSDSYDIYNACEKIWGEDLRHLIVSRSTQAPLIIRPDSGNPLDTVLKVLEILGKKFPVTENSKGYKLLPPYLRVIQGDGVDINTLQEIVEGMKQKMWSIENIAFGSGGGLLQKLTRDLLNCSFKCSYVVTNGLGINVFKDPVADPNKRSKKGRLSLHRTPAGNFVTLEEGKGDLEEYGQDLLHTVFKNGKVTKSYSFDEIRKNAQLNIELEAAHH

A2780 [3] = test: Antiproliferative activity against human A2780 cells assessed as cell viability after 72 hrs by SRB assay; type: functional, cell-based; details: A2780, 72 h
[4] = Aqueous solubility of the compound in PBS at pH 7.2 by LC/CLND analysis; type: physicochemical
[5] = Apparent permeability from apical to basolateral side in MDCK cells at 10 uM by LC-MS/MS analysis; type: ADME, cell-based, Canis lupus familiaris; details: dog
[6] = Fraction unbound in mouse plasma at 5 uM by LC-MS/MS analysis; type: ADME, cell-free
[7] = Ratio of drug level in retina to plasma of Sprague-Dawley rat at 30 mg/kg, po qd for 2 days measured 1 hr after last dose in presence of nicotinic acid
[8] = Antiproliferative activity against mouse B16F10 cells assessed as cell viability after 96 hrs by CyQuant staining-based assay; type: functional; details: B16-F10, 96 h
[9] = Cytotoxicity against rhesus monkey RF/6A cells assessed as cell viability after 96 hrs by CyQuant staining-based assay; details: Macaca mulatta
[10] = Inhibition of C-terminal His-6-tagged dog NAMPT expressed in Escherichia coli (DE3)-RIL cells after 30 mins by mass spectrometry-based analysis; design: species or system Canis lupus familiaris
[11] = Antiproliferative activity against mouse KPR cells assessed as cell viability after 96 hrs by CyQuant staining-based assay; type: functional
[12] = biological target: T1, Nicotinamide phosphoribosyltransferase (Mus musculus, UniProt Q99KQ4); test: Inhibition of mouse NAMPT after 30 mins by mass spectrometry-based analysis
T1 sequence (Q99KQ4 whole entry): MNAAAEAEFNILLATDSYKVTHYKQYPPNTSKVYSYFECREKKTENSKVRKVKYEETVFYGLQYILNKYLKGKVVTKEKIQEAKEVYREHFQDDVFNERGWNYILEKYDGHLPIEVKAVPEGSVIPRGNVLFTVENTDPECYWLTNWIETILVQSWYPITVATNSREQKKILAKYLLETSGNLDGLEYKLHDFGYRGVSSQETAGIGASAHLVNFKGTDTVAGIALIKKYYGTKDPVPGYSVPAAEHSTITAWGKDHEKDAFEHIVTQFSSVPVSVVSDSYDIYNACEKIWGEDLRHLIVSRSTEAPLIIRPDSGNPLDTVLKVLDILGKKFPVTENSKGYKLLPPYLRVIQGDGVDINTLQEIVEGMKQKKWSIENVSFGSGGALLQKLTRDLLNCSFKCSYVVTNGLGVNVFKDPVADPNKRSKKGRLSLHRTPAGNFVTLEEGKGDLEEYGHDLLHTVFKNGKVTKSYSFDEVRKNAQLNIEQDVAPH

[13] = Cellular uptake in mouse KPP cells at 1000 nM; type: ADME, cell-based; details: 1 µM
[14] = Octanol-PBS buffer distribution coefficient, log D of the compound at pH 7.4 by shake flask method; type: physicochemical
PC-3 [15] = test: Cellular uptake in human PC3 cells at 200 nM; type: ADME, cell-based; details: pc-3, 0.2 µM
[16] = Antiproliferative activity against dog A72 cells assessed as cell viability after 96 hrs by CyQuant staining-based assay; type: functional; details: Canis lupus familiaris, A-72, 96 h
[17] = Inhibition of C-terminal His-6-tagged cynomolgus monkey NAMPT expressed in Escherichia coli (DE3)-RIL cells after 30 mins by mass spectrometry-based analysis; design: species or system Macaca fascicularis
[18] = Antiproliferative activity against mouse KPP cells assessed as cell viability after 96 hrs by CyQuant staining-based assay; type: functional
PC-3 [19] = test: Cellular uptake in human PC3 cells at 1000 nM; type: ADME, cell-based; details: pc-3, 1 µM
[20] = Antiproliferative activity against human MIAPaCa2 cells assessed as cell viability after 96 hrs by CyQuant staining-based assay; type: functional; details: MIA PaCa-2, 96 h
[21] = Drug uptake in Sprague-Dawley rat retina at 30 mg/kg, po qd for 2 days measured 1 hr after last dose in presence of nicotinic acid; type: ADME, organism-based; design: dose 30 mg/kg, route oral; details: read-out: Drug uptake
[22] = Cytotoxicity against African green monkey COS7 cells assessed as cell viability after 96 hrs by CyQuant staining-based assay; details: Chlorocebus aethiops, COS-7, 96 h
PC-3 [23] = test: Antiproliferative activity against human PC3 cells assessed as cell viability after 96 hrs by CyQuant staining-based assay; type: functional; details: PC-3, 96 h
[24] = biological target: T1, Nicotinamide phosphoribosyltransferase; test: Inhibition of NAMPT in mouse cells assessed as reduction in NAD level after 48 hrs by mass spectrometry; type: cell-based
[25] = Antiproliferative activity against human HT1080 cells assessed as cell viability after 96 hrs by CyQuant staining-based assay; type: functional; details: HT-1080, 96 h
[26] = Drug uptake in Sprague-Dawley rat retina at 30 mg/kg, po qd for 2 days measured 6.5 hrs after last dose in presence of nicotinic acid; type: ADME, organism-based; design: dose 30 mg/kg, route oral; details: read-out: Drug uptake
[27] = Antiproliferative activity against dog D17 cells assessed as cell viability after 96 hrs by CyQuant staining-based assay; type: functional; details: Canis lupus familiaris, D17, 96 h
[28] = Antiproliferative activity against dog DH82 cells assessed as cell viability after 96 hrs by CyQuant staining-based assay; type: functional; details: Canis lupus familiaris, DH82, 96 h
[29] = biological target: Nicotinamide phosphoribosyltransferase (Rattus norvegicus, UniProt Q80Z29); test: Inhibition of rat NAMPT after 30 mins by mass spectrometry-based analysis
Sequence of Nicotinamide phosphoribosyltransferase (Rattus norvegicus, UniProt Q80Z29) (Q80Z29 whole entry): as the sequence (Q99KQ4 whole entry) above, with T335S, N439T, I484M counted along it

[30] = Dissociation constant, pKa of the compound; type: physicochemical
[31] = Cellular uptake in mouse KPP cells at 200 nM; type: ADME, cell-based; details: 0.2 µM
[32] = Ratio of drug level in retina to plasma of Sprague-Dawley rat at 30 mg/kg, po qd for 2 days measured 6.5 hrs after last dose in presence of nicotinic acid

Cn1ncc2cc(C(=O)NCc3ccc(S(=O)(=O)c4ccccc4)cc3)cnc21
inhibition (A2780 [1]): inactive | IC50 [2]: 1700 nM | IC50 (A2780 [3]): > 2000 nM

O=C(NCc1ccc(S(=O)(=O)N2CC3(CCOCC3)C2)cc1)c1cnc2[nH]ncc2c1
inhibition (A2780 [1]): inactive | IC50 [2]: 110 nM | IC50 (A2780 [3]): 45 nM

O=C(NCc1ccc(S(=O)(=O)N2CCCCC2)cc1)c1cnc2[nH]ncc2c1
inhibition (A2780 [1]): inactive | IC50 [2]: 100 nM | IC50 (A2780 [3]): 88 nM

CCn1cc(S(=O)(=O)c2ccc(CNC(=O)c3cnc4[nH]ncc4c3)cc2)cn1
inhibition (A2780 [1]): inactive | IC50 [2]: 190 nM | IC50 (A2780 [3]): 31 nM

CN(C)c1ccc(S(=O)(=O)c2ccc(CNC(=O)c3cnc4[nH]ncc4c3)cc2)cn1
solubility [4]: < 1 µM | inhibition (A2780 [1]): inactive | IC50 [2]: 12 nM | Papp A→B at 10 µM [5]: 1.5 ×10⁻⁶ cm/s | fraction unbound at 5 µM [6]: 0.018 | IC50 (A2780 [3]): 3.2 nM

O=C(NCc1ccc(S(=O)(=O)N2CCC(O)CC2)cc1)c1cnc2[nH]ncc2c1
inhibition (A2780 [1]): inactive | IC50 [2]: 410 nM | IC50 (A2780 [3]): 210 nM

O=C(NCc1ccc(S(=O)(=O)c2cccc(OC(F)(F)F)c2)cc1)c1cnc2[nH]ncc2c1
solubility [4]: < 1 µM | inhibition (A2780 [1]): inactive | IC50 [2]: 7.7 nM | Papp A→B at 10 µM [5]: 4 ×10⁻⁶ cm/s | fraction unbound at 5 µM [6]: 0.008 | IC50 (A2780 [3]): 4.8 nM

O=C(NCc1ccc(S(=O)(=O)c2ccccc2)cc1)c1ccc2nccn2c1
inhibition (A2780 [1]): inactive

COC1CCN(S(=O)(=O)c2ccc(CNC(=O)c3cnc4[nH]ncc4c3)cc2)CC1
inhibition (A2780 [1]): inactive | IC50 [2]: 400 nM | IC50 (A2780 [3]): 39 nM

O=C(NCc1ccc(S(=O)(=O)N2CCOCC2)cc1)c1cnc2[nH]ncc2c1
inhibition (A2780 [1]): inactive | IC50 [2]: 370 nM | IC50 (A2780 [3]): 280 nM

O=C(NCc1ccc(S(=O)(=O)N2CCC(N3CCCC3)CC2)cc1)c1cnc2[nH]ncc2c1
inhibition (A2780 [1]): inactive | IC50 (A2780 [3]): 35 nM

N#CC1CCN(S(=O)(=O)c2ccc(CNC(=O)c3cnc4[nH]ncc4c3)cc2)CC1
inhibition (A2780 [1]): inactive | IC50 [2]: 410 nM | IC50 (A2780 [3]): > 2000 nM

O=C(NCc1ccc(S(=O)(=O)c2ccccc2)cc1)c1cc2cn[nH]c2cn1
inhibition (A2780 [1]): inactive | IC50 [2]: > 2000 nM | IC50 (A2780 [3]): > 2000 nM

NC1CCN(S(=O)(=O)c2ccc(CNC(=O)c3cnc4[nH]ncc4c3)cc2)CC1
inhibition (A2780 [1]): inactive | IC50 [2]: 390 nM | IC50 (A2780 [3]): 330 nM

O=C(NCc1ccc(S(=O)(=O)c2cc(F)cc(F)c2)cc1)c1cnc2[nH]ncc2c1
solubility [4]: < 1 µM | inhibition (A2780 [1]): inactive | Papp A→B at 10 µM [5]: 7.8 ×10⁻⁶ cm/s | fraction unbound at 5 µM [6]: 0.114 | IC50 (A2780 [3]): 6 nM

O=C(NCc1ccc(S(=O)(=O)c2ccccc2)cc1)c1cnc2[nH]ncc2c1
inhibition (A2780 [1]): inactive | IC50 [2]: 54 nM | IC50 (A2780 [3]): 66 nM

O=C(NCc1ccc(S(=O)(=O)c2cncc(Cl)c2)cc1)c1cnc2[nH]ncc2c1
solubility [4]: < 1 µM | inhibition (A2780 [1]): inactive | IC50 [2]: 11 nM | Papp A→B at 10 µM [5]: 2.5 ×10⁻⁶ cm/s | fraction unbound at 5 µM [6]: 0.074 | IC50 (A2780 [3]): 2.4 nM

O=C(NCc1ccc(S(=O)(=O)c2ccccc2)cc1)c1ccc2[nH]ncc2n1
inhibition (A2780 [1]): inactive | IC50 [2]: 1300 nM | IC50 (A2780 [3]): > 2000 nM

O=C(NCc1ccc(S(=O)(=O)c2ccccc2)cc1)c1cnc2[nH]ccc2c1
inhibition (A2780 [1]): inactive | IC50 (A2780 [3]): > 2000 nM

CCCn1cc(S(=O)(=O)c2ccc(CNC(=O)c3cnc4[nH]ncc4c3)cc2)cn1
solubility [4]: 8.8 µM (≈ 3.74 µg/mL) | inhibition (A2780 [1]): inactive | IC50 [2]: 10 nM | Papp A→B at 10 µM [5]: 1.9 ×10⁻⁶ cm/s | fraction unbound at 5 µM [6]: 0.071 | IC50 (A2780 [3]): 6.9 nM

O=C(NCc1ccc(S(=O)(=O)c2cnc3ccccc3c2)cc1)c1cnc2[nH]ncc2c1
solubility [4]: < 1 µM | inhibition (A2780 [1]): inactive | IC50 [2]: 8.2 nM | Papp A→B at 10 µM [5]: 1.6 ×10⁻⁶ cm/s | fraction unbound at 5 µM [6]: 0.009 | IC50 (A2780 [3]): 2.2 nM

O=C(NCc1ccc(S(=O)(=O)N2CCCCC2)cc1)c1ccc2nccn2c1
inhibition (A2780 [1]): inactive

O=C(NCc1ccc(S(=O)(=O)c2ccc(N3CCOCC3)nc2)cc1)c1cnc2[nH]ncc2c1
solubility [4]: < 1 µM | inhibition (A2780 [1]): inactive | IC50 [2]: 4.5 nM | Papp A→B at 10 µM [5]: 0.85 ×10⁻⁶ cm/s | fraction unbound at 5 µM [6]: 0.019 | IC50 (A2780 [3]): 1.3 nM

O=C(NCc1ccc(S(=O)(=O)N2CCCCC2)cc1)c1ccc2[nH]ncc2c1
inhibition (A2780 [1]): inactive | IC50 [2]: > 2000 nM | IC50 (A2780 [3]): > 2000 nM

O=C(NCc1ccc(S(=O)(=O)N2CCN(C3COC3)CC2)cc1)c1cnc2[nH]ncc2c1
inhibition (A2780 [1]): inactive | IC50 [2]: 440 nM | IC50 (A2780 [3]): 45 nM

CC(C)n1cc(S(=O)(=O)c2ccc(CNC(=O)c3cnc4[nH]ncc4c3)cc2)cn1
inhibition (A2780 [1]): inactive | IC50 [2]: 99 nM | IC50 (A2780 [3]): 12 nM

O=C(NCc1ccc(S(=O)(=O)c2cc(F)cc(F)c2)cc1)c1ccc2nccn2c1
Kp at 1 h [7]: 0.32 | IC50 [8]: 71 nM | IC50 [9]: 4 nM | IC50 [10]: 7 nM | IC50 [11]: 41 nM | IC50 [12]: 24 nM | Drug uptake [13]: 31 nM | logD [14]: 3.2 | Drug uptake (PC-3 [15]): 9 nM | IC50 [16]: 4 nM | IC50 [17]: 42 nM | IC50 [18]: 16 nM | Drug uptake (PC-3 [19]): 30 nM | IC50 [20]: 7 nM | concentration at 1 h [21]: 1900 nM | IC50 [22]: 9 nM | IC50 (PC-3 [23]): 3 nM | EC50 [24]: 1.3 nM | IC50 [25]: 2 nM | concentration at 6.5 h [26]: 1300 nM | IC50 [27]: 12 nM | IC50 [28]: 7 nM | IC50 [29]: 23 nM | pKa [30]: 5.3 | Drug uptake [31]: 8 nM | Kp at 6.5 h [32]: 0.3

O=C(NCc1ccc(S(=O)(=O)c2cncc(C(F)(F)F)c2)cc1)c1cnc2[nH]ncc2c1
solubility [4]: < 1 µM | inhibition (A2780 [1]): inactive | IC50 [2]: 10 nM | Papp A→B at 10 µM [5]: 4.4 ×10⁻⁶ cm/s | fraction unbound at 5 µM [6]: 0.05 | IC50 (A2780 [3]): 4.5 nM
